Results published in US4996236A, “Therapeutic composition for hepatic encephalopathy” (Takeda Chemical Industries, Ltd., priority 1988, dated 1991).

Key:
[1] = Acute oral toxicity in rats; details: rat, in vivo, rats (Wistar)
[2] = Blood ammonia level-lowering effect in rats on high-protein diet; type: in vivo, rat (male SD); details: for Blood ammonia level: 7 days, mean ± S.D., 5 animals
Experimental: The blood ammonia level-lowering effect of N-(1,3-dihydroxy-2-propyl)valiolamine in rats
Male SD rats aged […] were fed either on a regular diet or a high-protein powder diet containing 61% of casein for 7 days. N-(1,3-dihydroxy-2-propyl)valiolamine (hereinafter referred to shortly as AO-128) was added to the high-protein diet at final concentrations of 10 and 50 ppm. The animals had free access to the diets and the mean daily food intake was approximately 18 g/day. On the 7th day, laparotomy was performed under ether anesthesia and the blood was collected from the abdominal aorta. The blood ammonia level was estimated using an assay kit, a product of WAKO.

[3] = Acute oral toxicity in mice; details: mouse, in vivo, mice (NRMI)
α-glucosidase = details: cited from earlier work
[4] = diabetics accompanied with hepatocirrhosis; cited from earlier work

| Compound | LD50 [1] | Blood ammonia level ([2]; 10 ppm AO-128 in high-protein diet (61% casein)) | Blood ammonia level ([2]; 50 ppm AO-128 in high-protein diet (61% casein)) | blood ammonia level versus high-protein diet control group ([2]; AO-128 treated high-protein diet group, 10 and 50 ppm) | LD50 [3] | α-glucosidase inhibitory activity (α-glucosidase) | effect on blood ammonia level [4] |
| --- | --- | --- | --- | --- | --- | --- | --- |
| OCC(CO)N[C@H]1C[C@](O)(CO)[C@@H](O)[C@H](O)[C@H]1O [AO-128, N-(1,3-dihydroxy-2-propyl)valiolamine] | ~20000 mg/kg | 88 ± 7 µg/dL | 90 ± 8 µg/dL | overtly lower blood ammonia level than the high-protein diet control group | 14700 to 21500 mg/kg |  |  |
| C[C@H]1O[C@H](O[C@H]2[C@H](O)[C@@H](O)[C@@H](O[C@H]3[C@H](O)[C@@H](O)C(O)O[C@@H]3CO)O[C@@H]2CO)[C@H](O)[C@@H](O)[C@@H]1N[C@H]1C=C(CO)[C@@H](O)[C@H](O)[C@H]1O (stereo partly shown) [acarbose] |  |  |  |  |  | α-glucosidase inhibitor | lowers the blood ammonia level |
